The source of these data is patent US20100234238A1, “METHOD FOR PROFILING KINASE INHIBITORS” (Janssen Pharmaceutica N V, priority 2006, published 2010).

Test [1] has as its system xenograft tumors. The experiment in a line: Response of subcutaneous xenograft tumors to MTKI in vivo. Details: species or system nude immuno-compromised mice; key: R: A responder is predicted when minimally 4 peptides have a ratio <0.8; NR = Non-Responder to MTKI. The procedure: (§1) To explore whether a similar approach allows for the classification of responder and non-responder tumors, the same strategy as above was applied to 12 different xenograft tumors, which were subcutaneously grown in nude immuno-compromised mice from human cancer cell lines. […] Lysates were made from homogenized frozen tumor blocks and analyzed in the absence or presence of 5 μM MTKI, as before.

Test [2] has as its system xenograft tumors. The test is described as above. Details: species or system nude immuno-compromised mice. The conditions noted are these: for response status: response to MTKI in vivo. The procedure: as §1
Test [3] deals with 27 cell lines, representing diverse cancer cell types. Briefly: Inhibition of proliferation of cell lines in vitro (response status). It counts as cell-based. On the set-up: key: R: A responder is predicted when minimally 4 peptides have a ratio <0.8; NR = Non-Responder to MTKI. The following applies: MTKI. As to the method:
It was tested whether the Pamchip peptide arrays are a useful tool to predict the response of a cell line to the multi-targeted kinase inhibitor, MTKI. MTKI inhibits the proliferation of a range of cell lines in vitro with widely varying IC50's. The lysates prepared from these 27 cell lines, representing diverse cancer cell types, were profiled on the peptide arrays in the absence or presence of 5 μM MTKI, in 6 replicates for each condition. In this panel, 13 cell lines were defined as responder cell lines (IC50<3 μM; cell lines are ordered according to increasing IC50 in Example 1, whereas 14 cell lines are classified as ‘non-responder’ cell lines (IC50>10 μM). Intermediary cell lines and cell lines with highly variable IC50 measurements were omitted from the analysis. The experiment included the highly responsive H3255 lung cancer cell line, which overexpresses mutant EGFR L858R. This mutant variant is highly responsive to MTKI, which is an ATP-competitive compound that binds to the active conformation of EGFR (similar to erlotinib and gefitinib). Accordingly, the most profound changes induced by MTKI in lysate kinase activity can be observed for this highly responsive cell line. […]

Test [4] deals with xenograft tumors. The experiment in a line: Response of subcutaneous xenograft tumors to MTKI in vivo. Details: species or system nude immuno-compromised mice; key: R = Responder to MTKI; NR = Non-Responder to MTKI. The procedure:
as §1

With `COc1cc2ncnc3c2cc1OCCCCCN(C)Cc1ccc(Br)cc1N3` [MTKI, 4,6-ethanediylidenepyrimido[4,5-b][6,1,12]benzoxadiazacyclopentadecine, 17-bromo-8,9,10,11,12,13,14,19-octahydro-20-methoxy-13-methyl-], the response status entry in test [1] (H441 xenograft tumor), in test [1] (H460 xenograft tumor), in test [1] (H1703 xenograft tumor), in test [1] (HT29 xenograft tumor), in test [1] (PC3 xenograft tumor) and in test [1] (SKOV3 xenograft tumor) was “NR” throughout. In addition, the response status entry in test [1] (U87MG xenograft tumor) is recorded as “NR”; in test [2] (A431 xenograft tumor), “R”; in test [2] (BT474 xenograft tumor), “R”; in test [2] (DU145 xenograft tumor), “R”; in test [2] (H322 xenograft tumor) it was “R”; in test [2] (H3255 xenograft tumor), “R”. Further, the response status result is reported as “R” in test [2] (SUM149 xenograft tumor); “NR” in test [3] (GTL16 cell line); “NR” in test [3] (MOLT4 cell line); “R” in test [4] (A431 xenograft tumor); “R” in test [4] (BT474 xenograft tumor); “R” in test [4] (DU145 xenograft tumor). Further, the response status entry in test [4] (H322 xenograft tumor), in test [4] (H3255 xenograft tumor) and in test [4] (SUM149 xenograft tumor) was “R” each time. Also, the “responsiveness of xenograft tumors in vivo” value in test [2] (DU145, SUM149 and BT474 tumors) is “potent inhibition of tumor growth”; in test [2] (H460 and H441, HT29, PC3, SKOV3, H1703 tumors), “non-responsive”; in test [2] (H3255, A431 and H322 tumors), “abrupt tumor regression”.
